Test results from ChEMBL document CHEMBL4422658, “Calixarene-based phosphinic acids as inhibitors of protein tyrosine phosphatases” (Bioorg Med Chem Lett, 2019).
pIC50, pKi: −log10 of the molar value.

Key:
[1] = target: T1, Tyrosine-protein phosphatase non-receptor type 1 (Homo sapiens, UniProt P18031); experiment: Inhibition of recombinant human PTP1B expressed in Escherichia coli using […] as substrate preincubated with substrate for 5 mins followed by enzyme addition
T1 sequence (P18031 whole entry): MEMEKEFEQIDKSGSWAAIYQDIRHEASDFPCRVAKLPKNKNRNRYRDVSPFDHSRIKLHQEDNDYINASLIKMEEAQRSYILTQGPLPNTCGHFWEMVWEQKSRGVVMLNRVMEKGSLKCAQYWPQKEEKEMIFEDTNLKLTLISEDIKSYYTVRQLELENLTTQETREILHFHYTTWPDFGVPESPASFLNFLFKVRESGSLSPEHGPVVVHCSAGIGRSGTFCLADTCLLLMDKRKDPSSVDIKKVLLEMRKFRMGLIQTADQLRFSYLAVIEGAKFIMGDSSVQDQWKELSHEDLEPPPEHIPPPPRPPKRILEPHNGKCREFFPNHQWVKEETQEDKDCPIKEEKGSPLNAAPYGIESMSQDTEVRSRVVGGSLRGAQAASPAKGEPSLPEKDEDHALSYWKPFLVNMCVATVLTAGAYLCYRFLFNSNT

[2] = target: T2, Tyrosine-protein phosphatase non-receptor type 2 (Homo sapiens, UniProt P17706); experiment: Inhibition of recombinant human N-terminal GST-tagged TCPTP catalytic domain (2 to 315 residues) expressed in Escherichia coli using […] as substrate preincubated with substrate for 5 mins followed by enzyme addition
T2 sequence (P17706 whole entry): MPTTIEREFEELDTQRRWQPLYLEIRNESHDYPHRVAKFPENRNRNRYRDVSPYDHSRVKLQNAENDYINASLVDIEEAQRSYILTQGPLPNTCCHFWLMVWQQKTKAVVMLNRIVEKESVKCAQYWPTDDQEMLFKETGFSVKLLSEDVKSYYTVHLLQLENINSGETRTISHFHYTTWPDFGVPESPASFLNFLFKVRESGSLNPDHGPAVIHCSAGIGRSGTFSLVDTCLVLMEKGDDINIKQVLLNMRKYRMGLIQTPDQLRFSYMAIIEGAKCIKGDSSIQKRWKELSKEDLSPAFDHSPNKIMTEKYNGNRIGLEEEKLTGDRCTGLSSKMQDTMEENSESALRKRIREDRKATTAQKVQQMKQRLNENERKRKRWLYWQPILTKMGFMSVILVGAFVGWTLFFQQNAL

[3] = target: T3, Tyrosine-protein phosphatase non-receptor type 9 (Homo sapiens, UniProt P43378); experiment: Inhibition of recombinant human N-terminal GST-tagged MEG2 catalytic domain (285 to 593 residues) expressed in Escherichia coli using […] as substrate preincubated with substrate for 5 mins followed by enzyme addition
T3 sequence (P43378 whole entry): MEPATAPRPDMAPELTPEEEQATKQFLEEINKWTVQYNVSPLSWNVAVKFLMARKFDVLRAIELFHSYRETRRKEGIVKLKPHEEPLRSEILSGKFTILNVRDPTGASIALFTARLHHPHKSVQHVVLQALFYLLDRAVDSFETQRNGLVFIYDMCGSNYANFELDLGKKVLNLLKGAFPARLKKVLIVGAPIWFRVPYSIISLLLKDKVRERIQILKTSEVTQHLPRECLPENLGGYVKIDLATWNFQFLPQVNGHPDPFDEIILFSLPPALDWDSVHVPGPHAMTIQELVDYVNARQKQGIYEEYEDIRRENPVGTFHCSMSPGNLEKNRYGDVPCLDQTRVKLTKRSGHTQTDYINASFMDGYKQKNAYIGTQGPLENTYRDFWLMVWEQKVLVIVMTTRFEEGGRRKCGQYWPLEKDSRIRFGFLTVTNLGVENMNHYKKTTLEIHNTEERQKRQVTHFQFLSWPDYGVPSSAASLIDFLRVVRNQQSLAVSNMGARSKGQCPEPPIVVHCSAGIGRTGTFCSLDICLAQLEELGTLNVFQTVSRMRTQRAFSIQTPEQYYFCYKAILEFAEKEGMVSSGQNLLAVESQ

[4] = target: T4, Tyrosine-protein phosphatase non-receptor type 4 (Homo sapiens, UniProt P29074); experiment: Inhibition of recombinant human N-terminal GST-tagged MEG1 catalytic domain (637 to 926 residues) expressed in Escherichia coli using […] as substrate preincubated with substrate for 5 mins followed by enzyme addition
T4 sequence (P29074 whole entry): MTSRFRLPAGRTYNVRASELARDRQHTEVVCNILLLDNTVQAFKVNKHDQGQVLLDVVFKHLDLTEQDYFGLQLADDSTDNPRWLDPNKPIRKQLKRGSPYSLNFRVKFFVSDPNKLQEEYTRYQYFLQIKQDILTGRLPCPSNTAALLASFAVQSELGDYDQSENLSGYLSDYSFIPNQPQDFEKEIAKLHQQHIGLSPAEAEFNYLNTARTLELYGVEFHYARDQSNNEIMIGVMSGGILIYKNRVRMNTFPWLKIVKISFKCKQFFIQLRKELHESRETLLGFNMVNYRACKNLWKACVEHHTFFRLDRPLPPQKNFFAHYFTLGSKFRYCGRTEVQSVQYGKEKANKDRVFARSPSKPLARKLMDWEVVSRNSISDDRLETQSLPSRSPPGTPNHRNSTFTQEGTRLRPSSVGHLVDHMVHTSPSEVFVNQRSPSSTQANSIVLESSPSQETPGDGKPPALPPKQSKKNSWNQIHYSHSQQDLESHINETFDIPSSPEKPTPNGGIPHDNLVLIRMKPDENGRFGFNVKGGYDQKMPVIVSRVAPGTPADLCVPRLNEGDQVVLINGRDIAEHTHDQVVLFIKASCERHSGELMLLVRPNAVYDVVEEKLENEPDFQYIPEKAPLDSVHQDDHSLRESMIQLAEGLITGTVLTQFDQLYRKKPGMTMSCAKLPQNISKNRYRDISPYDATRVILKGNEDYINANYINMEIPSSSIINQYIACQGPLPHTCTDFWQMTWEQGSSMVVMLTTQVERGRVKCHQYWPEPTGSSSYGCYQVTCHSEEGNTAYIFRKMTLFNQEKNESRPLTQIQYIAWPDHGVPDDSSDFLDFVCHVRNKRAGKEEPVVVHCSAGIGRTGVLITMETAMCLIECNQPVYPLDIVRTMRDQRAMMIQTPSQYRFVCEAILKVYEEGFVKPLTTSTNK

[5] = target: T5, Tyrosine-protein phosphatase non-receptor type 11 (Homo sapiens, UniProt Q06124); experiment: Inhibition of recombinant human SHP2 expressed in Escherichia coli using […] as substrate preincubated with substrate for 5 mins followed by enzyme addition
T5 sequence (Q06124 whole entry): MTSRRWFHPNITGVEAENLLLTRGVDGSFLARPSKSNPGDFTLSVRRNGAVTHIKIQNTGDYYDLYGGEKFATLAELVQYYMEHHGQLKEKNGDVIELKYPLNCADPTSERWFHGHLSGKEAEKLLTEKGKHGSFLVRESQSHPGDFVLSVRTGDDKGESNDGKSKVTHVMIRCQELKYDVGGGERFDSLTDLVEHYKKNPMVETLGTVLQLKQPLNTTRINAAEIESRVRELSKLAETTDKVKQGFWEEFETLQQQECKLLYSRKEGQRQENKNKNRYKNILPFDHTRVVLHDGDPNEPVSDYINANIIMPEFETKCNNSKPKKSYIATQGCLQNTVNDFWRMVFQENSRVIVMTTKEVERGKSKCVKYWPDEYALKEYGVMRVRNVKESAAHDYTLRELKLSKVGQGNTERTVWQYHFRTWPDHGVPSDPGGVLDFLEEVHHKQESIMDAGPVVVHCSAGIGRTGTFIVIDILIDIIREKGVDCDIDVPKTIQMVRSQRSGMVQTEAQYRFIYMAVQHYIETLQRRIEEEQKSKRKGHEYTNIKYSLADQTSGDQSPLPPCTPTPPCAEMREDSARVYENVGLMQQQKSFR

Homo sapiens [6] = species: Homo sapiens; experiment: Selectivity ratio of IC50 for recombinant human N-terminal GST-tagged TCPTP catalytic domain (2 to 315 residues) expressed in Escherichia coli to IC50 for recombinant human PTP1B expressed in Escherichia coli
Homo sapiens [7] = species: Homo sapiens; experiment: Selectivity ratio of IC50 for recombinant human N-terminal GST-tagged MEG2 catalytic domain (285 to 593 residues) expressed in Escherichia coli to IC50 for recombinant human PTP1B expressed in Escherichia coli
Homo sapiens [8] = species: Homo sapiens; experiment: Selectivity ratio of IC50 for recombinant human N-terminal GST-tagged MEG1 catalytic domain (637 to 926 residues) expressed in Escherichia coli to IC50 for recombinant human PTP1B expressed in Escherichia coli
Homo sapiens [9] = species: Homo sapiens; experiment: Selectivity ratio of IC50 for recombinant human SHP2 expressed in Escherichia coli to IC50 for recombinant human PTP1B expressed in Escherichia coli
[10] = target: T1, Tyrosine-protein phosphatase non-receptor type 1; experiment: Competitive inhibition of recombinant human PTP1B expressed in Escherichia coli using varying levels of […] as substrate by Lineweaver-burk plot analysis

O=P(O)(Cc1cc2c(O)c(c1)Sc1cc(CP(=O)(O)c3ccccc3)cc(c1O)Sc1cc(CP(=O)(O)c3ccccc3)cc(c1O)Sc1cc(CP(=O)(O)c3ccccc3)cc(c1O)S2)c1ccccc1
pIC50 [1]: 6.42
pIC50 [2]: 5.17
pIC50 [3]: 5.23
pIC50 [4]: 5.27
pIC50 [5]: 5.43
Ratio IC50 (Homo sapiens [6]): 15
Ratio IC50 (Homo sapiens [7]): 10 to 18
Ratio IC50 (Homo sapiens [8]): 10 to 18
Ratio IC50 (Homo sapiens [9]): 10 to 18
pKi [10]: 6.85

CCOP(=O)(O)Cc1cc2c(O)c(c1)Sc1cc(CP(=O)(O)OCC)cc(c1O)Sc1cc(CP(=O)(O)OCC)cc(c1O)Sc1cc(CP(=O)(O)OCC)cc(c1O)S2
Ratio IC50 (Homo sapiens [6]): 15

O=P(O)(Cc1cc2c(O)c(c1)Cc1cc(CP(=O)(O)c3ccccc3)cc(c1O)Cc1cc(CP(=O)(O)c3ccccc3)cc(c1O)Cc1cc(CP(=O)(O)c3ccccc3)cc(c1O)C2)c1ccccc1
pIC50 [1]: 5.55
pIC50 [2]: 4.70
pIC50 [3]: 5.62
pIC50 [4]: 4.52
pIC50 [5]: 5.34

O=P(O)(Cc1cc2c(O)c(c1)S(=O)(=O)c1cc(CP(=O)(O)c3ccccc3)cc(c1O)S(=O)(=O)c1cc(CP(=O)(O)c3ccccc3)cc(c1O)S(=O)(=O)c1cc(CP(=O)(O)c3ccccc3)cc(c1O)S2(=O)=O)c1ccccc1
pIC50 [1]: 7.10
pIC50 [2]: 6.55
pIC50 [3]: 6.39
pIC50 [4]: 6.74
pIC50 [5]: 6.30
pKi [10]: 7.49
